The target of this assay is T1, H. sapiens SLC2A9 variant 2 (GLUT9B) (Homo sapiens, UniProt Q9NRM0).
T1 sequence (Q9NRM0 1-511 isoform Q9NRM0-2): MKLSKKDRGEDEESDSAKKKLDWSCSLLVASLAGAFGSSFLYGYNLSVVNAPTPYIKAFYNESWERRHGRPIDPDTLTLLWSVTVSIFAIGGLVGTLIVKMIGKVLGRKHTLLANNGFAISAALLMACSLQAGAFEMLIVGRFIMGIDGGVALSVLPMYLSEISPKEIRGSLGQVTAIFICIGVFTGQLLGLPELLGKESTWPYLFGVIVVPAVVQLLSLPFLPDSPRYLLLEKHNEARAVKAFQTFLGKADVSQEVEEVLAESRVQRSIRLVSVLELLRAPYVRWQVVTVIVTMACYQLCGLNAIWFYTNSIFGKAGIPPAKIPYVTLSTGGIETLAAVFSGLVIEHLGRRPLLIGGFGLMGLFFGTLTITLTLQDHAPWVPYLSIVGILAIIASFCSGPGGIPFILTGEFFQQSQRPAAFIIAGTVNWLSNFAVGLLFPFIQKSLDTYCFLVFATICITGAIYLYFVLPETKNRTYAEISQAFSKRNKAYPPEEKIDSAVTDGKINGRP
In words: GLUT9 functional assay: uric acid uptake in HEK293T cells, allantoin formation by MS/MS as proxy of GLUT9B inhibition. The assay is classed as cell-based. The note with it: HEK293T cells stably expressing GLUT9B and transiently A. oryzae uricase, uric acid 0.3 mM, 37° C. The protocol:
Uric acid stocks (9 mM, Millipore-Sigma, U0881) were generated in 125 mM choline chloride (Millipore-Sigma, C7017) and the concentration was determined at 293 nm using a molar extinction coefficient of 9600 M- ^1 cm- ^1) after collecting the absorbance spectra from 220-350 nm. Allantoin stocks (12 mM Toronto Research Chemicals, A540500) were generated in LCMS grade water (Thermo Scientific, 51140). The concentration of allantoin was determined by qNMR (Michigan State University). HEK293T cells were purchased from ATCC (HEK 293T/17 SF). Hanks buffered saline salts (HBSS) was purchased from Millipore-Sigma (H6648-1L).
SLC2A9 variant 2 was assayed in sodium gluconate buffer was composed of 125 mM sodium gluconate (TCI Chemicals, G0041-500G), 4.8 mM potassium gluconate (TCI Chemicals, G0040-500G), 1.2 mM calcium gluconate (TCI Chemicals, G0037-500G), 1.2 mM potassium phosphate (pH 7.4, Millipore-Sigma, 17835), 1.2 mM MgSO4, Millipore-Sigma, M2773-500G), 25 mM HEPES pH 7.3, (Millipore-Sigma, 54457). The final pH of the buffer was 7.4. Urate 1 was assayed in the same buffer save the pH was made to be 5.5 using 25 mM MES (pH 5.5) buffer vs 25 mM HEPES (pH 7.3) buffer.
Human untagged clone for (untagged)-human solute carrier family 2 member 9 (SLC2A9), transcript variant (SLC2A9/NM_001001290, FIG. 1 and FIG. 2; SEQ ID NOS: 3 and 4) was purchased from Origene (Cat #SC319239). SLC2A9 variant 2 (GLUT9B) gene was amplified by PCR using the following primer to allow for the introduction of EcoR1 and Not1 sites using the primers below.
HEK293T clonal stable cell lines containing the SLC2A9 variant 2 construct in the bicistronic pIRESpuro vector were generated using Viafect™ (Promega E4981) as per the manufactures instructions and puromycin selection (5 μg×mL^−1).
Uric acid uptake was measured in HEK293T cells stably expressing H. sapiens SLC2A9 variant 2 (GLUT9B) and transiently expressing A. oryzae uricase. Thus, decreased allantoin formation was used as a proxy of GLUT9B inhibition. Briefly, clonal cells were plated (53,000 cells/cm^2) in DMEM with 10% FBS. Twenty-four hours later, A. oryzae uricase was transfected, and assay conducted 3 days later across a 12-point curve in buffer (in mM: 125 sodium gluconate, 4.8 potassium gluconate, 1.2 calcium gluconate, 1.2 potassium phosphate, 1.2 magnesium sulfate4, 25 HEPES; pH 7.4) with uric acid at the GLUT9B Km (0.3 mM) for 15 min or for 60 min, at 37° C. Following wash (Hanks, 37° C.), plates were sealed, incubated (5 min, RT) and cells freeze-thawed prior to lysing in water and shaking (30 min RT). Lysates were filtered through PVDF and subjected to MSMS using a 10 mM ammonium acetate-based mobile phase on a porous graphitic carbon column. Allantoin was detected in positive ion mode. Desired analyte concentrations were quantitated by integrating the area under the curve followed by a log-logistic regression model and data compared to a standard curve prepared in a matching HEK293T biological matrix.
Mass spectrometry measurement of allantoin was completed using an Agilent RapidFire 300 coupled to a Sciex API 4000 mass spectrometer. The stationary phase was an Agilent cartridge D (hypercarb). Mobile phase A was 10 mM ammonium acetate. Mobile phase B was 5 mM ammonium acetate, 25% acetonitrile, 25% acetone. Allantoin was detected in positive ion mode with the following compound ID settings: Q1 159, Q3 115.8, DP 57, CE 12.5 Dwell 100 ms. The source settings were CAD 10, CUR 20, GS1 50, GS250 IS/NC: 5000, TEM 650, EP 10, CXP 10 where Q1 and Q3 resolution were set to low.
Data was quantitated using Area under the curve integration was performed with the RapidFire™ Integrator (Agilent Technologies) for the desired analytes. Quantitation was completed using in a using a log-logistic regression model using allantoin in matching HEK293T biological matrix.

[1] abbreviates: 15 minute assay, read-out: 15 min IC50.
The mark [2] stands for this setting: 60 minute assay, read-out: 60 min IC50.

pIC50: −log10 of the molar value. Where two headings read alike, the source gives them in different places. Bounds are passed on as bounds.

Regarding `O=C(O)C1CCN(c2nc(CCC(F)(F)F)cnc2-c2ccc(C(F)(F)F)cc2)CC1` [Compound 162, 1-(3-(4-(trifluoromethyl)phenyl)-6-(3,3,3-trifluoropropyl)pyrazin-2-yl)piperidine-4-carboxylic acid], the pIC50 (in general, −log10 of the IC50, conventionally taken in molar units) under setting [1] was 5.70 to 6.30. Regarding `O=C(O)C1CCN(c2nc(COCC(F)(F)F)cnc2-c2cnc3c(c2)CCO3)CC1` [Compound 72, 1-(3-(2,3-dihydrofuro[2,3-b]pyridin-5-yl)-6-((2,2,2-trifluoroethoxy)methyl)pyrazin-2-yl)piperidine-4-carboxylic acid], the negative-log IC50 (pIC50) under setting [1] was below 5.70. Still for that read-out and setting: next, `COCCOc1ccc(-c2ncc(CCC(F)(F)F)nc2N2CCC(c3nn[nH]n3)CC2)cc1` [Compound 71, 3-(4-(2H-tetrazol-5-yl)piperidin-1-yl)-2-(4-(2-methoxyethoxy)phenyl)-5-(3,3,3-trifluoropropyl)pyrazine]: above 6.30; `CCC(F)(F)Cc1cnc(-c2ccc3occc3c2)c(N2CCC(C(=O)O)CC2)n1` [Compound 149, 1-(3-(benzofuran-5-yl)-6-(2,2-difluorobutyl)pyrazin-2-yl)piperidine-4-carboxylic acid]: above 6.30; `CCCCc1nc(-c2ccc(OC)cc2)c(N2CCC(C(=O)O)CC2)o1` [Compound 28, 1-(2-butyl-4-(4-methoxyphenyl)oxazol-5-yl)piperidine-4-carboxylic acid]: 5.70 to 6.30.

Regarding `O=C(O)C1CC2(CCN(c3nc(CCC(F)(F)F)cnc3-c3cc(F)c4occc4c3)CC2)C1` [Compound 95, 7-(3-(7-fluorobenzofuran-5-yl)-6-(3,3,3-trifluoropropyl)pyrazin-2-yl)-7-azaspiro[3.5]nonane-2-carboxylic acid], the pIC50 under setting [1] was above 6.30. For `CCCCc1cnc(-c2ccc(OC)cc2)c(N2CC3(CC(C(=O)O)C3)C2)n1` [Compound 36, 2-(6-butyl-3-(4-methoxyphenyl)pyrazin-2-yl)-2-azaspiro[3.3]heptane-6-carboxylic acid], the pIC50 under setting [1] was 5.70 to 6.30.

Consider `COc1ccc(-c2nc(Cl)c(COCC(F)(F)F)nc2N2CCC(C(=O)O)CC2)cc1` [Compound 54, 1-(5-chloro-3-(4-methoxyphenyl)-6-((2,2,2-trifluoroethoxy)methyl)pyrazin-2-yl)piperidine-4-carboxylic acid], for which the pIC50 under setting [1] was below 5.70.

Regarding `COCCCc1cnc(-c2ccc3sccc3c2)c(N2CCC(C(=O)O)CC2)n1` [Compound 226, 1-(3-(benzo[b]thiophen-5-yl)-6-(3-methoxypropyl)pyrazin-2-yl)piperidine-4-carboxylic acid], the pIC50 under setting [2] is above 6.30.

In the case of `O=C(O)c1c[nH]c2cc(-c3cc(CCC(F)(F)F)cnc3-c3cc(F)c4occc4c3)ccc12` [Compound 63, 6-(2-(7-fluorobenzofuran-5-yl)-5-(3,3,3-trifluoropropyl)pyridin-3-yl)-1H-indole-3-carboxylic acid], under setting [1], the pIC50 is 5.70 to 6.30.

On to `O=C(O)C1CCN(c2nc(CCC(F)(F)F)cnc2-c2ccc(OCC3CC3)cc2)CC1` [Compound 152, 1-(3-(4-(cyclopropylmethoxy)phenyl)-6-(3,3,3-trifluoropropyl)pyrazin-2-yl)piperidine-4-carboxylic acid], for which the pIC50 under setting [1] was above 6.30.

`COCCCc1cnc(-c2cnc3nccn3c2)c(N2CCC(C(=O)O)CC2)n1` [Compound 196, 1-(3-(imidazo[1,2-a]pyrimidin-6-yl)-6-(3-methoxypropyl)pyrazin-2-yl)piperidine-4-carboxylic acid]: the pIC50 under setting [2] was below 5.70. Turning to `COCCCc1cnc(-c2cc(F)c3occc3c2)c(N2CCC(C(=O)O)C3CC32)n1` (stereo not drawn) [Compound 186, 2-(3-(7-fluorobenzofuran-5-yl)-6-(3-methoxypropyl)pyrazin-2-yl)-2-azabicyclo[4.1.0]heptane-5-carboxylic acid], under setting [2], the pIC50 is above 6.30. With `CCCCc1cnc(-c2ccc3[nH]ccc3c2)c(N2CCC(C(=O)O)CC2)n1` [Compound 5, 1-(6-Butyl-3-(1H-Indol-5-yl)Pyrazin-2-yl)Piperidine-4-Carboxylic Acid], the pIC50 under setting [1] is below 5.70. Still for that read-out and setting: next, `COCCCCc1cnc(-c2ccc3c(c2)CCO3)c(N2CCC(C(=O)O)CC2)n1` [Compound 139, 1-(3-(2,3-dihydrobenzofuran-5-yl)-6-(4-methoxybutyl)pyrazin-2-yl)piperidine-4-carboxylic acid]: above 6.30.

Regarding `COCCCc1cnc(-c2ccc3occc3c2)c(N2CCC(C(=O)O)CC2)n1` [Compound 172, 1-(3-(benzofuran-5-yl)-6-(3-Methoxypropyl)Pyrazin-2-yl)Piperidine-4-carboxylic acid], the pIC50 was above 6.30 under setting [1] and above 6.30 under setting [2]. Regarding `CCCCc1cnc(-c2ccc3c(c2)OCO3)c(N2CCC(C(=O)O)CC2)n1` [Compound 45], the pIC50 under setting [1] was above 6.30.

For `COCCCc1cnc(-c2ccc3nsnc3c2)c(N2CCC(C(=O)O)CC2)n1` [Compound 204, 1-(3-(benzo[c][1,2,5]thiadiazol-5-yl)-6-(3-methoxypropyl)pyrazin-2-yl)piperidine-4-carboxylic acid], the negative logarithm of the IC50 (pIC50) under setting [2] was below 5.70. Turning to `COCCCc1cnc(-c2ccc3occc3c2)c(NC23CC(C(=O)O)(C2)C3)n1` [Compound 182, 3-((3-(benzofuran-5-yl)-6-(3-methoxypropyl)pyrazin-2-yl)amino)bicyclo[1.1.1]pentane-1-carboxylic acid], the pIC50 under setting [2] was below 5.70.

Take `CCCCc1cnc(-c2cc(F)c3c(c2)OCO3)c(N2CCC(C(=O)O)CC2)n1` [Compound 46, 1-(6-butyl-3-(7-fluorobenzo[d][1,3]dioxol-5-yl)pyrazin-2-yl)piperidine-4-carboxylic acid]: under setting [1], the pIC50 was above 6.30. With `CCCCc1cnc(-c2ccc(OC)cc2)c(-c2cn(CC(=O)O)nn2)c1` [Compound 29, 2-(4-(5-butyl-2-(4-methoxyphenyl)pyridin-3-yl)-1H-1,2,3-triazol-1-yl)acetic acid], the pIC50 under setting [1] is above 6.30.

With `COCCCc1cnc(-c2cc(F)c3c(c2)OCO3)c(N2CCCC(C(=O)O)CC2)n1` (stereo not drawn) [Compound 244, 1-(3-(7-fluorobenzo[d][1,3]dioxol-5-yl)-6-(3-methoxypropyl)pyrazin-2-yl)azepane-4-carboxylic acid], under setting [2], the pIC50 is above 6.30. As for `O=C(O)C1CCN(c2nc(CCC(F)(F)F)cnc2-c2ccc3c(c2)OCCO3)CC1` [Compound 122, 1-(3-(2,3-dihyrobenzo[b][1,4]dioxin-6-yl)-6-(3,3,3-trifluoropropyl)pyrazin-2-yl)piperidine-4-carboxylic acid], the pIC50 under setting [1] is 5.70 to 6.30.

Values taken from patent US20250179032A1, “HETEROCYCLIC INHIBITORS OF GLUT9 FOR TREATMENT OF DISEASE” (HORIZON THERAPEUTICS IRELAND DAC, priority 2022, published 2025).
